Assay results from publication PMC11472320, “Computationally Driven Discovery of a BCR-ABL1 Kinase Inhibitor with Activity in Multidrug-Resistant Chronic Myeloid Leukemia” (Journal of Medicinal Chemistry, 2024).
“And” between values parts separate entries of the source, which are not always exact repeats. Equal values may be shown once. Read-outs that look alike come from different tables or passages of the source.

Assays:
[1] = cited from earlier work
[2] = cited from earlier work; remark: listed apart in the source
[3] = Abraham ANMR value by NMR (CDCl3 vs DMSO-d6); type: physicochemical
Source text: Previously, intramolecular N–H–F hydrogen bonds (HBs) have been proposed as a strategy to reduce P-gp-mediated efflux and improve passive permeability, as highlighted in the discovery of the brain-penetrant EGFR inhibitor, AZD-3759 (Figure 2A).[37]−[40] […] Consistent with this work, we conducted an NMR study of the EGFR inhibitor 7a and the BCR-ABL1 inhibitor 8a in deuterated chloroform (CDCl3) and in the more polar, HB-accepting dimethyl sulfoxide (DMSO-d6). […] This finding is further supported by the lack of ^1JNH-F coupling (≤1 Hz) in 7a and 8a, as contrasted with bona fide intramolecular HBs to fluorine, which typically have ^1JNH-F coupling constants >10 Hz as exemplified by 9 with its ^1JNH-F of 19.1 Hz.[41],[43]

MDCKII-MDR1 cells [4] = settings: cited from earlier work
in vitro [5] = settings: dog, MDCK-MDR1
MDR1 (P-gp) = experiment: in vitro; settings: dog, MDCK-MDR1
MDR1 = experiment: in vitro; settings: dog, MDCK-MDR1
Caco-2 cells = experiment: Caco-2 permeability; settings: for Recovery% (BL-AP) / efflux ratio: Table S9
Aqueous solubility = type: physicochemical; settings: pH 7.4
BCR-ABL1 wt = BCR-ABL1 wt (Homo sapiens, UniProt P00519); experiment: KinaseProfiler enzymatic radiometric kinase assay; settings: read-out: Kinase IC50 BCR-ABL1 wt; [ATP] = 10 µM, n = 2
Sequence of BCR-ABL1 wt (P00519 27-1130 limits assumed): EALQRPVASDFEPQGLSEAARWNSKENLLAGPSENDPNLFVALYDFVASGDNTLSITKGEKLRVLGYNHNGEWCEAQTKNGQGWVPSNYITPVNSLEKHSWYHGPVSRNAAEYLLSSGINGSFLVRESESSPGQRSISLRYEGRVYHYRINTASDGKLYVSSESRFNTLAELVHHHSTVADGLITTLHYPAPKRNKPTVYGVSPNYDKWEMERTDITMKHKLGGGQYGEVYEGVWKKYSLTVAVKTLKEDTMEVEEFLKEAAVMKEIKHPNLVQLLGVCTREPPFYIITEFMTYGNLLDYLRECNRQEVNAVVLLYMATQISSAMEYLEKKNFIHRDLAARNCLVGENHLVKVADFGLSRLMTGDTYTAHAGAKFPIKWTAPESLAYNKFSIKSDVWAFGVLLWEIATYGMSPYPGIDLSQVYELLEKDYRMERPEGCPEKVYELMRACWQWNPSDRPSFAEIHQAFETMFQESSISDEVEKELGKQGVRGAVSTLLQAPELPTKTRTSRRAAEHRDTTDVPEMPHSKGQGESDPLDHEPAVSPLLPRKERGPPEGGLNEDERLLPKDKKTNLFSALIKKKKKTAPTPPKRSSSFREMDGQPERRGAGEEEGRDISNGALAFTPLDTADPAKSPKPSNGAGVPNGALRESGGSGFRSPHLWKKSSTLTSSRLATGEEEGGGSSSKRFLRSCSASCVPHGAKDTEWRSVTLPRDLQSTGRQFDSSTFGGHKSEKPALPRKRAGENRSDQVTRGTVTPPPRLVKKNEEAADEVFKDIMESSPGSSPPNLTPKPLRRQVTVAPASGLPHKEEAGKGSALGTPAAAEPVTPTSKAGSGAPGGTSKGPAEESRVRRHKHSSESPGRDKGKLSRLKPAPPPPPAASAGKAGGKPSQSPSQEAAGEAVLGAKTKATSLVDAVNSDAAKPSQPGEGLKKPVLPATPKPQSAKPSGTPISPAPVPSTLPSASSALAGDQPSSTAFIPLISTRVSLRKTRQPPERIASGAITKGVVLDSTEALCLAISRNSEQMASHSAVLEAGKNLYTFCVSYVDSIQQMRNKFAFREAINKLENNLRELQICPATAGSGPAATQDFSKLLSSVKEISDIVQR

in vitro [6] = settings: human, Caco-2
Ph+ CML = experiment: Activity in Ph+ CML (Figure 2B annotation); type: cell-based; settings: annotation in Figure 2B
[7] = Plasma protein binding by equilibrium dialysis; type: in vitro ADME; settings: human plasma
[8] = Metabolic stability in hepatocytes; type: in vitro ADME, human; settings: for hepatocyte CLint: both sexes, read-out: HEPClint (H); for hepatocyte CLint / t1/2 (H): human hepatocytes
Source text: Metabolic stability in hepatocytes
Table S4. Hepatocyte details used in the hepatocyte stability assay.
Human Hepatocytes, Mixed-Gender BiolVT (Cat No. X008001)
Mouse Hepatocytes, Male-Gender BiolVT (Cat No. M005052)

MDCKII-MDR1 cells [9] = experiment: MDCKII-MDR1 permeability; settings: for Recovery% (BL-AP): Table S7; for MDCKII-MDR1 Efflux Ratio: n = 2
mutant BCR-ABL1 kinases = experiment: Biochemical kinase inhibition, summary statements; parameters: species or system human; settings: read-out: IC50 against mutant BCR-ABL1 kinases
Lipophilicity logD7.4 = type: physicochemical; settings: pH 7.4
cSRC wt = cSRC wt (Homo sapiens, UniProt P12931); experiment: KinaseProfiler enzymatic radiometric kinase assay
CDC2L5 = target: T1, CDC2L5 (Homo sapiens, UniProt Q14004); experiment: KINOMEScan; type: binding; settings: read-out: Percent Control
T1 construct: purchased Eurofins DiscoverX (KINOMEscan)
T1 sequence (Q14004 whole entry): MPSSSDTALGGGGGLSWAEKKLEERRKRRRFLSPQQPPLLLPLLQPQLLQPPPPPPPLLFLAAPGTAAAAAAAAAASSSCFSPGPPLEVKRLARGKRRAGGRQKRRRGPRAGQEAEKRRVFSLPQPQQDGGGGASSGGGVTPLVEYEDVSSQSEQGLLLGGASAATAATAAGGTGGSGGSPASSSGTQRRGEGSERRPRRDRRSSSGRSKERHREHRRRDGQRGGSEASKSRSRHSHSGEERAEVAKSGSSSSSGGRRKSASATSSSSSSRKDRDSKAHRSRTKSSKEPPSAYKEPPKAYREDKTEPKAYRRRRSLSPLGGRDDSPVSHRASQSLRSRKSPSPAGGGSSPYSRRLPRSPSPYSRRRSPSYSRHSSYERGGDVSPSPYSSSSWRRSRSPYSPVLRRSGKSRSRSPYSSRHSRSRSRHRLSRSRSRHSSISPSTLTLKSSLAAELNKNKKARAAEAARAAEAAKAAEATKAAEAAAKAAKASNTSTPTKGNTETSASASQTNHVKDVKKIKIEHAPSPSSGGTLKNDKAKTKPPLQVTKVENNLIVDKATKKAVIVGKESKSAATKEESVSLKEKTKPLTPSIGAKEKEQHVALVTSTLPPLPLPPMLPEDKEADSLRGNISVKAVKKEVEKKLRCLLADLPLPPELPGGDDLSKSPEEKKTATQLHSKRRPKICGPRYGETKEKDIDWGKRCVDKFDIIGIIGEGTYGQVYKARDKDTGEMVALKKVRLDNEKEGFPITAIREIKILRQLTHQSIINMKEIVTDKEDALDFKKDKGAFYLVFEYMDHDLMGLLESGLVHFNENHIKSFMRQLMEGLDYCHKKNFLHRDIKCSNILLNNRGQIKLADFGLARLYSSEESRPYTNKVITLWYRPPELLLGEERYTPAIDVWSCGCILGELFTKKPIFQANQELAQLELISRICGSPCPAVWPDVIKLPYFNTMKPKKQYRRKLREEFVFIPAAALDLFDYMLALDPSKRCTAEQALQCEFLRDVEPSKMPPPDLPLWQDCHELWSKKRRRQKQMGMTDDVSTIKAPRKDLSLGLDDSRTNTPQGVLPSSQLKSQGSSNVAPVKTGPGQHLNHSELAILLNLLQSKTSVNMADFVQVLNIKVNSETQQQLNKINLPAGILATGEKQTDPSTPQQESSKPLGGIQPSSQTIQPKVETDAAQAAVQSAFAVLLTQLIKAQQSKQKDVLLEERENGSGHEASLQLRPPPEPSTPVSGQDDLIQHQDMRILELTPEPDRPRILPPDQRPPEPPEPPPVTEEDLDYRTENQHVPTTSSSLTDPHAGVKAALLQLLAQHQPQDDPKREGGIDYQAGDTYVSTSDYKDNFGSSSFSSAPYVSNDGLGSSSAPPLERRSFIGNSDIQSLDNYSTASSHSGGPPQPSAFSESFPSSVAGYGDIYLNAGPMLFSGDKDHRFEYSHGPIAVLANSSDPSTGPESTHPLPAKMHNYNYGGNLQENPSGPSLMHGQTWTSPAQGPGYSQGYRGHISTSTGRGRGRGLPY

PRKCQ = target: T2, PRKCQ (Homo sapiens, UniProt Q04759); experiment: KINOMEScan; type: binding; settings: read-out: Percent Control
T2 construct: purchased Eurofins DiscoverX (KINOMEscan)
T2 sequence (Q04759 whole entry): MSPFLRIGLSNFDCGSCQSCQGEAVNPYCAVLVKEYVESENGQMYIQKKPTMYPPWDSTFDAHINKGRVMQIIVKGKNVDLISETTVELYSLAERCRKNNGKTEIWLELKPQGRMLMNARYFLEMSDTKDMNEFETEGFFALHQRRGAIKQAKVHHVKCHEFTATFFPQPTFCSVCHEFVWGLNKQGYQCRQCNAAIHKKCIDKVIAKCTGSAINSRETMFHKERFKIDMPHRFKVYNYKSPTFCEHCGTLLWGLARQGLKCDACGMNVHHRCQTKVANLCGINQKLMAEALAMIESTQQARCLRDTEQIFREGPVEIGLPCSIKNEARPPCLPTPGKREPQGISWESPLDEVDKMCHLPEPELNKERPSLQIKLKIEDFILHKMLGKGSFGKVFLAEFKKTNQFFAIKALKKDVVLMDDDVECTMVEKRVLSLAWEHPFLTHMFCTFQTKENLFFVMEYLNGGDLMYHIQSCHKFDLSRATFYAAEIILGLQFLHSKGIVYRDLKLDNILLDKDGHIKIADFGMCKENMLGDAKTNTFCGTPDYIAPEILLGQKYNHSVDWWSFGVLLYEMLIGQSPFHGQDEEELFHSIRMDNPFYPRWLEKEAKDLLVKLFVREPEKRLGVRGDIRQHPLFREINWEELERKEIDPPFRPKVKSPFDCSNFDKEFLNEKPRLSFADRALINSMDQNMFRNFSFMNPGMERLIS

PFCDPK1(P.falciparum) = target: T3, PFCDPK1(P.falciparum) (Plasmodium falciparum, UniProt P62344); experiment: KINOMEScan; type: binding; settings: read-out: Percent Control
T3 construct: purchased Eurofins DiscoverX (KINOMEscan)

PRP4 = target: T4, PRP4 (Homo sapiens, UniProt Q13523); experiment: KINOMEScan; type: binding; settings: read-out: Percent Control
T4 construct: purchased Eurofins DiscoverX

PRKCH = target: T5, PRKCH (Homo sapiens, UniProt P24723); experiment: KINOMEScan; type: binding; settings: read-out: Percent Control
T5 construct: purchased Eurofins DiscoverX (KINOMEscan)
T5 sequence (P24723 whole entry): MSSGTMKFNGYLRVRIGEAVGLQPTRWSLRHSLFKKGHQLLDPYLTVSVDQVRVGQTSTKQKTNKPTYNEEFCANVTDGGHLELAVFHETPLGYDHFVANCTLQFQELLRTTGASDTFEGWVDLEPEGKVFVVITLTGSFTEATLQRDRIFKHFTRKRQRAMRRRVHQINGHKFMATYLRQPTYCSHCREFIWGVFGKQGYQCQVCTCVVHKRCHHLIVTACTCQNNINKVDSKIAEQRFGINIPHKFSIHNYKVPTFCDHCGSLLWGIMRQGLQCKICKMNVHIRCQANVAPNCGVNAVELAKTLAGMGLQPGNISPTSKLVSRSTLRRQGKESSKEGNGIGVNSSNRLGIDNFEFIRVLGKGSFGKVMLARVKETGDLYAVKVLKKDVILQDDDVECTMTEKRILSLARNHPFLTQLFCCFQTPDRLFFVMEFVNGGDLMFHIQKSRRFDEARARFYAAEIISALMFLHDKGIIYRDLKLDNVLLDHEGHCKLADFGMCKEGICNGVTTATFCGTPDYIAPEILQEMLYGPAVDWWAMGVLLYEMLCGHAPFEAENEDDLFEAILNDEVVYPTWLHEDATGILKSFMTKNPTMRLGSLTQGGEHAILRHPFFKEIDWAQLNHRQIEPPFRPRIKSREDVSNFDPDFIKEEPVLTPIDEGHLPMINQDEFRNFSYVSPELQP

PRKCI = target: T6, PRKCI (Homo sapiens, UniProt P41743); experiment: KINOMEScan; type: binding; settings: read-out: Percent Control
T6 construct: purchased Eurofins DiscoverX (KINOMEscan)
T6 sequence (P41743 whole entry): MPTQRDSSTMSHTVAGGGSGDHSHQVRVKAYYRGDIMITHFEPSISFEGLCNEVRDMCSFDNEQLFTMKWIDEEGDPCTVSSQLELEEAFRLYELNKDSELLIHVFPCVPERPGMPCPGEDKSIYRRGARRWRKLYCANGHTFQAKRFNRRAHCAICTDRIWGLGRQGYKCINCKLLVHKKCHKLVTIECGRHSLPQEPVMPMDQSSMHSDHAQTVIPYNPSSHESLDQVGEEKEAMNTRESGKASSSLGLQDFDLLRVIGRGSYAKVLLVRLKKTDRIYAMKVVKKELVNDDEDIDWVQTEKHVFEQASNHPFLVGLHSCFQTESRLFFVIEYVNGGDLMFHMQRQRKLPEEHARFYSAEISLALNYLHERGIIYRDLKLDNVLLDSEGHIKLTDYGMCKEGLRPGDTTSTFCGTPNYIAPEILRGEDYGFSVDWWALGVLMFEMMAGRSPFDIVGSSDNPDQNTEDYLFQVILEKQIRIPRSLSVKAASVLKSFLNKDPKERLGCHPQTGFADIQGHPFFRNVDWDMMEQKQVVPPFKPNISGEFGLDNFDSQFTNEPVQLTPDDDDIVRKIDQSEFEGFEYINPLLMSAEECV

PFPK5(P.falciparum) = target: T7, PFPK5(P.falciparum) (Plasmodium falciparum, UniProt P61075); experiment: KINOMEScan; type: binding; settings: read-out: Percent Control
T7 construct: purchased Eurofins DiscoverX (KINOMEscan)
T7 sequence (P61075 whole entry): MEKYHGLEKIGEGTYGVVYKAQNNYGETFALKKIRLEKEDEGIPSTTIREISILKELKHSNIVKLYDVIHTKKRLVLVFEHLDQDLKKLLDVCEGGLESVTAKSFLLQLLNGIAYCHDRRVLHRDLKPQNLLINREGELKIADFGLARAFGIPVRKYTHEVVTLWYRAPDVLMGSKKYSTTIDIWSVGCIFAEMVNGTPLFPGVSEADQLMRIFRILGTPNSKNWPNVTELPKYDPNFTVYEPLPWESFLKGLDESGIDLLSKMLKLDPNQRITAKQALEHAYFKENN

PRKCE = target: T8, PRKCE (Homo sapiens, UniProt Q02156); experiment: KINOMEScan; type: binding; settings: read-out: Percent Control
T8 construct: purchased Eurofins DiscoverX (KINOMEscan)

PRKD3 = target: T9, PRKD3 (Homo sapiens, UniProt O94806); experiment: KINOMEScan; type: binding; settings: read-out: Percent Control
T9 construct: purchased Eurofins DiscoverX (KINOMEscan)

PRKD1 = target: T10, PRKD1 (Homo sapiens, UniProt Q15139); experiment: KINOMEScan; type: binding; settings: read-out: Percent Control
T10 construct: purchased Eurofins DiscoverX (KINOMEscan)

PRKCD = target: T11, PRKCD (Homo sapiens, UniProt Q05655); experiment: KINOMEScan; type: binding; settings: read-out: Percent Control
T11 construct: purchased Eurofins DiscoverX (KINOMEscan)

PKNB(M.tuberculosis) = target: T12, PKNB(M.tuberculosis) (Mycobacterium tuberculosis, UniProt P9WI81); experiment: KINOMEScan; type: binding; settings: read-out: Percent Control
T12 construct: purchased Eurofins DiscoverX (KINOMEscan)

P-glycoprotein (P-gp) = settings: Figure 1A; cited from earlier work
[10] = pH 7.4; cited from earlier work
[11] = parameters: method as in earlier work; settings: human plasma; cited from earlier work
[12] = pH 7.4; cited from earlier work; remark: listed apart in the source
[13] = cited from earlier work; remark: listed apart in the source

In the case of `COc1cc2ncnc(Nc3cccc(Cl)c3F)c2cc1OCCON1CCN(C)CC1` [7a], the Micronucleus [1] is listed as “Negative”, the AMES [2] is listed as “Negative” and the “Abraham ANMR Value (aniline N-H)” value [3] is listed as > 0.30 and 0.31. For the same molecule, the P-gp efflux status (MDCKII-MDR1 cells [4]) was “Not a P-gp Substrate”.

`COc1cc(Nc2c(C#N)cnc3cc(OCCON4CCN(C)CC4)c(OC)cc23)c(F)cc1Cl` [8a, 4-((4-Chloro-2-fluoro-5-methoxyphenyl)amino)-6-methoxy-7-(2-((4-methylpiperazin-1-yl)oxy)ethoxy)quinoline-3-carbonitrile] showed a recovery (in vitro [5]) of 79.8%, a Papp A→B (MDR1 (P-gp)) of 0.7 ×10⁻⁶ cm/s and a Papp B→A (MDR1 (P-gp)) of 19.3 ×10⁻⁶ cm/s. For the same molecule, the Papp A→B (MDR1) was 0.73 ×10⁻⁶ cm/s, the efflux ratio (MDR1) was 26.4 and the “Recovery% (BL-AP)” value (Caco-2 cells) was 72.31%. The “efflux ratio” value (Caco-2 cells) was 6.22, the “Caco-2 Papp (a-b)” value (Caco-2 cells) was 1.9 ×10⁻⁶ cm/s and the “Caco-2 Papp (b-a)” value (Caco-2 cells) was 12.1 ×10⁻⁶ cm/s. The “Aq. Sol.” value (Aqueous solubility) was 43 µM, the “Abraham ANMR Value (aniline N-H)” value [3] was > 0.30 and 0.40 and the IC50 (BCR-ABL1 wt) was 1 nM. It also gave a Papp A→B (in vitro [6]) of 1.94 ×10⁻⁶ cm/s, a Papp B→A (in vitro [6]) of 12.1 ×10⁻⁶ cm/s and an efflux ratio (in vitro [6]) of 6.4. For the same molecule, the recovery (in vitro [6]) was 61.2%, the “Activity in Ph+ CML” value (Ph+ CML) was “Moderate Activity” and the fraction unbound ([7]; both sexes) was 0.0558. The recovery ([7]; both sexes) was 99.9%, the remaining at 6 h ([7]; both sexes, 6 h) was 92.7% and the “%Unbound” value [7] was 5.58%. For the same molecule, the “Remaining Percentages” value ([8]; 0.5 min) was 100.00%, the “Remaining Percentages” value ([8]; 15 min) was 69.28% and the “Remaining Percentages” value ([8]; 30 min) was 52.48%. For the same molecule, the “Remaining Percentages” value ([8]; 60 min) was 29.45%, the “Remaining Percentages” value ([8]; 90 min) was 15.72% and the “Remaining Percentages” value ([8]; 120 min) was 9.48%. The hepatocyte CLint [8] was 40.5 µL/min/1e6 cells, the “t1/2 (H)” value [8] was 34.2 min and the P-gp efflux status (MDCKII-MDR1 cells [9]) was “P-gp Substrate”. For the same molecule, the “Recovery% (BL-AP)” value (MDCKII-MDR1 cells [9]) was 64.87%, the “MDCKII-MDR1 Efflux Ratio” value (MDCKII-MDR1 cells [9]) was 27.6 and the IC50 (mutant BCR-ABL1 kinases) was less than 1 nM. It also gave a logD (Lipophilicity logD7.4) of 3.4 and an IC50 (cSRC wt) of 2 nM.

`COc1cc2c(Nc3cccc(Cl)c3F)c(C#N)cnc2cc1OCCON1CCN(C)CC1` [11a, 4-((3-Chloro-2-fluorophenyl)amino)-6-methoxy-7-(2-((4-methylpiperazin-1-yl)oxy)ethoxy)quinoline-3-carbonitrile] gave a recovery (in vitro [5]) of 71.6%, a Papp A→B (MDR1 (P-gp)) of 7.2 ×10⁻⁶ cm/s and a Papp B→A (MDR1 (P-gp)) of 29.6 ×10⁻⁶ cm/s. The Papp A→B (MDR1) was 7.16 ×10⁻⁶ cm/s, the Papp B→A (MDR1) was 29.6 ×10⁻⁶ cm/s and the efflux ratio (MDR1) was 4.15. For the same molecule, the “Recovery% (BL-AP)” value (Caco-2 cells) was 80.51%, the “efflux ratio” value (Caco-2 cells) was 7.49 and the “Caco-2 Papp (a-b)” value (Caco-2 cells) was 3.7 ×10⁻⁶ cm/s. The “Caco-2 Papp (b-a)” value (Caco-2 cells) was 27.4 ×10⁻⁶ cm/s, the “Aq. Sol.” value (Aqueous solubility) was 14 µM and the “Abraham ANMR Value (aniline N-H)” value [3] was 0.40. The Papp A→B (in vitro [6]) was 3.66 ×10⁻⁶ cm/s, the Papp B→A (in vitro [6]) was 27.4 ×10⁻⁶ cm/s and the efflux ratio (in vitro [6]) was 7.4. The recovery (in vitro [6]) was 60.5%, the “Activity in Ph+ CML” value (Ph+ CML) was “Poor Activity” and the “Remaining Percentages” value ([8]; 0.5 min) was 100.00%. The “Remaining Percentages” value ([8]; 15 min) was 82.49%, the “Remaining Percentages” value ([8]; 30 min) was 66.92% and the “Remaining Percentages” value ([8]; 60 min) was 45.06%. The “Remaining Percentages” value ([8]; 90 min) was 29.85%, the “Remaining Percentages” value ([8]; 120 min) was 18.60% and the hepatocyte CLint [8] was 27.9 µL/min/1e6 cells. The “t1/2 (H)” value [8] was 49.7 min, the P-gp efflux status (MDCKII-MDR1 cells [9]) was “Moderate P-gp Substrate” and the “Recovery% (BL-AP)” value (MDCKII-MDR1 cells [9]) was 85.59%. The “MDCKII-MDR1 Efflux Ratio” value (MDCKII-MDR1 cells [9]) was 4.1 and the logD (Lipophilicity logD7.4) was 3.3.

In the case of `COc1cc2c(Nc3ccc(Cl)c(OC)n3)c(C#N)cnc2cc1OCCON1CCN(C)CC1` [16a, 4-((5-Chloro-6-methoxypyridin-2-yl)amino)-6-methoxy-7-(2-((4-methylpiperazin-1-yl)oxy)ethoxy)quinoline-3-carbonitrile], the remaining binding at 1 µM (CDC2L5) is reported as 100%, the remaining binding at 1 µM (PRKCQ) is reported as 30% and the remaining binding at 1 µM (PFCDPK1(P.falciparum)) is reported as 18%. For the same molecule, the remaining binding at 1 µM (PRP4) was 33%, the remaining binding at 1 µM (PRKCH) was 84% and the remaining binding at 1 µM (PRKCI) was 61%. The remaining binding at 1 µM (PFPK5(P.falciparum)) was 100%, the remaining binding at 1 µM (PRKCE) was 70% and the remaining binding at 1 µM (PRKD3) was 58%. The remaining binding at 1 µM (PRKD1) was 78%, the remaining binding at 1 µM (PRKCD) was 42% and the remaining binding at 1 µM (PKNB(M.tuberculosis)) was 53%.

For `COc1cc(Nc2c(C#N)cnc3cc(OCCCN4CCN(C)CC4)c(OC)cc23)c(Cl)cc1Cl` [Bosutinib, bosutinib], the P-gp efflux status (P-glycoprotein (P-gp)) is listed as “P-gp Substrate”, the “Aq. Sol.” value [10] is listed as 14 µM and the “%Recovery” value [11] is listed as 94.01%. For the same molecule, the “%Unbound” value [11] was 4.52%, the logD7.4 [12] was 3.1 and the “Remaining Percentages” value ([13]; 0.5 min) was 100.00%. For the same molecule, the “Remaining Percentages” value ([13]; 15 min) was 73.99%, the “Remaining Percentages” value ([13]; 60 min) was 53.95% and the “Remaining Percentages” value ([13]; 90 min) was 34.15%. For the same molecule, the “Remaining Percentages” value ([13]; 120 min) was 20.73%, the “Papp(a-b)” value (MDCKII-MDR1 cells [4]; Table S7) was 0.38 10-6 cm/s and the “Recovery% (AP-BL)” value (MDCKII-MDR1 cells [4]; Table S7) was 56.02%. For the same molecule, the “Recovery% (BL-AP)” value (MDCKII-MDR1 cells [4]; Table S7) was 65.52%, the “MDCKII-MDR1 Papp (a-b)” value (MDCKII-MDR1 cells [4]; a-b) was 0.4 ×10⁻⁶ cm/s and the P-gp efflux status (MDCKII-MDR1 cells [4]) was “P-gp Substrate”.
